The results in this text go back to patent US12427151B2, “Compositions and method of treating cancer” (The Regents of the University of California, priority 2017, dated 2025).

Values after ≈ are worked out from the molar mass of the structure shown. Where only a bound is given, the exact number is not on record here.

For one experiment, the system named is GAS. Kind of experiment: Comparison of antimicrobial activity of natural and synthetic 6-HAP. In kind it is cell-based, group A Streptococcus. The following applies: THB overnight, OD600. On the procedure: GAS (1×10^5 CFU/mL) were incubated with indicated concentrations of purified 6-HAP or synthetic 6-HAP in THB overnight. Bacterial growth was monitored by measuring OD600 (relative % of growth index).
Structural analyses of antibiotic produced by S. epidermidis. High-resolution electrospray (ES)-mass spectrometry analysis of the purified antimicrobial fraction identified a molecule with a mass of 151.0487, predicting a molecular formula of C5H5N5O (calculated: 151.0489) (FIG. 3a). […] Given the chemical formula as C5H5N5O, the structure was predicted as 6-N-hydroxyaminopurine (6-HAP). To confirm this predicted structure we performed a chemical synthesis of 6-HAP. […] In addition, the fragmentation profile of natural compound by electron-impact MS (FIG. 3e) also matched that of synthetic product (FIG. 3f).

A further experiment has as its system S. hominis ATCC27844. Kind of experiment: MBC determination. The class given is cell-based. The following applies: Staphylococcus hominis, 3-log reduction, 24 hour, 37° C., half strength MHB in PBS. The method, then:
(§1) To determine MBC, bacteria were cultured in TSB (Staphylococcus), THB (Streptococcus) or Nutrient broth (P. aeruginosa and E. coli) by reaching exponential phase (OD600=0.5-0.8). […] After incubation, the number of viable bacteria was measured by counting CFU after spreading 10-fold serial dilutions of bacteria on suitable agar plates. MBC was determined as a 3-log reduction (99.9%) of viable bacteria after 24 hour incubation.
(§2) Antimicrobial activity of 6-HAP in vitro. To examine the specificity of 6-HAP for various bacteria, minimal bactericidal concentrations (MBCs) were determined according to dose-dependent killing curves at 24 hrs of incubation in vitro (Table 1). 6-HAP killed or suppressed growth of several major skin pathogens including GAS (NZ131), group B Streptococcus (GBS) (DK23), methicillin-sensitive S. aureus (ATCC35556), methicillin-resistant S. aureus (MRSA) strains (USA300 and Sanger252), Pseudomonas aeruginosa (P. aeruginosa) (ATCC14213) in vitro. […] S. epidermidis (ATCC12228) was also resistant to 6-HAP.

Another experiment has as its system E. coli ATCC25922. Kind of experiment: MBC determination. The following applies: Escherichia coli, 3-log reduction, 24 hour, 37° C., half strength MHB in PBS. In kind it is cell-based. On the procedure: as §1, §2
Another experiment concerns S. epidermidis ATCC12228. Kind of experiment: MBC determination. In kind it is cell-based. The following applies: Staphylococcus epidermidis, 3-log reduction, 24 hour, 37° C., half strength MHB in PBS. On the procedure:
as §1, §2

In another experiment the test system is P. aeruginosa ATCC14213. In words: MBC determination. In kind it is cell-based. The following applies: Pseudomonas aeruginosa, 3-log reduction, 24 hour, 37° C., half strength MHB in PBS. The method, then:
as §1, §2

Another experiment concerns S. aureus ATCC35556. In words: MBC determination. In kind it is cell-based. The following applies: Staphylococcus aureus, 3-log reduction, 24 hour, 37° C., half strength MHB in PBS. On the procedure:
as §1, §2

Experiment [1] relates to NHEKs treated with mARC1 and mARC2 siRNA. Kind of experiment: Gene silencing of mARCs with siRNA, sensitivity to 6-HAP. The following applies: 6-HAP 10 μg/mL for 24 hrs, BrdU incorporation. In kind it is cell-based, human. On the procedure: (a-b) Selective antiproliferative activity of 6-HAP against Pam212 squamous cell carcinoma, but not against normal keratinocytes. BrdU incorporation into Pam212 cells (b) or NHEKs (b) after 4-hr or 24-hr incubation, respectively, in suitable media containing indicated concentrations of 6-HAP or mitomycin C (10 μg/mL) (a). (c) Expression of mARC1 and mARC2 in NHEKs, squamous cell carcinoma (Pam212), melanoma (B16F10) and lymphoma cell lines (L5178). To compare relative expression level in each cells, data was shown as relative to GAPDH expression. (d) Expression of mARC1 and mARC2 in NHEKs treated with control siRNA, mARCI siRNA and mARC2 siRNA. (e) Effect of gene silencing with mARC1 and mARC2 siRNA on sensitivity to 6-HAP in NHEKs. NHEKs treated with each siRNA were incubated for 48 hrs and then incubated with 10 μg/mL of 6-HAP for 24 hrs.
Gene silencing of mARCs with siRNA. NHEK was cultured in EpiLife® media containing pre-designed siRNA for mARC1 or mARC2 (Thermo Fisher, Waltham, MA), and RNAiMAX® reagent for 24 hrs. Cells were maintained in EpiLife for 72 hrs, and incubated with 6-HAP (10 μg/mL) for 24 hrs. Anti-proliferative activity of 6-HAP was determined by measuring BrdU incorporation as described above.
In mammalian cells, mitochondrial […] reducing components (mARC) 1 and 2 have shown to be capable of reducing N-hydroxylated nucleobase analogs to canonical nucleobases. […]
(Uptake of a labelled nucleoside into DNA is a usual measure of proliferation.)

Another experiment deals with B16F10 melanoma. Kind of experiment: Cell proliferation assay (BrdU incorporation). In kind it is cell-based, mouse. The following applies: B16F10, 4-hr incubation. On the procedure:
(§3) Proliferative activity of tumor cell line, L5178 (a), YAC-1 lymphoma (b), B16F10 melanoma (c) after 4-hr incubation in suitable media containing indicated concentrations of 6-HAP or mitomycin C (10 μg/mL). Proliferative activity of cells was determined by monitoring BrdU incorporation. The data represent mean±SE of four individual experiments.
(§4) Cell culture and cell proliferation assay. B16F10 mouse melanoma, Pam212, L5178 and YAC-1 mouse […] cell lines were obtained from American Type Culture Collection. Pam212, L5178 and YAC-1 cell lines were maintained in RPMI-1640 supplemented with sodium pyruvate (1 mM), nonessential amino acids (0.1 mM), penicillin (100 unit/mL), streptomycin (100 μg/mL) and 10% heat-inactivated fetal bovine serum (FBS) or horse serum at 37° C. under atmosphere of 5% (v/v) CO2 in air. B16F10 cell line was maintained in DMEM supplemented with penicillin (100 unit/mL), streptomycin (100 μg/mL) and 10% heat-inactivated FBS. NHEKs were obtained from Invitrogen (Life technologies, Grand Island, NY) and maintained in EpiLife medium (Life technologies) supplemented with 60 μM Calcium, epidermal growth factors, penicillin and streptomycin. After 4-hr (tumor cell lines) or 24-hr (NHEK) incubation with 6-HAP, proliferative activity of cells was colorimetrically determined by monitoring BrdU incorporation with Cell Proliferation kit according to the manual (Roche).

For a further experiment, the system named is L5178 lymphoma. In words: Cell proliferation assay (BrdU incorporation). The class given is cell-based, mouse. The following applies: L5178, 4-hr incubation. On the procedure:
as §3, §4

The test system of the next experiment is YAC-1 lymphoma. Kind of experiment: Cell proliferation assay (BrdU incorporation). In kind it is cell-based, mouse. The following applies: YAC-1, 4-hr incubation. The method, then:
as §3, §4

As for `ONc1ncnc2nc[nH]c12` [6-HAP, 6-N-hydroxyaminopurine], the “antimicrobial activity against GAS, synthetic versus natural product” value with GAS is given as “comparable to that of natural product”. The minimum bactericidal concentration (MBC) (usually the lowest tested concentration that kills the bacteria rather than only halting them) against S. hominis ATCC27844 was 12.5 µg/mL (≈ 82.7 µM); against E. coli ATCC25922 it was 50 µg/mL (≈ 331 µM); in the experiment with S. epidermidis ATCC12228, over 50 µg/mL; against P. aeruginosa ATCC14213, 1.56 µg/mL (≈ 10.3 µM); in the experiment on S. aureus ATCC35556 it was 6.25 µg/mL (≈ 41.4 µM). In addition, in [1], the “cellular sensitivity to 6-HAP after mARC1 and mARC2 gene silencing” value is on record as “increased cellular sensitivity”. In addition, the BrdU incorporation entry in the experiment on B16F10 melanoma, in the experiment on L5178 lymphoma and in the experiment on YAC-1 lymphoma was “inhibited” in each case.
